Assay results taken from PubChem BioAssay AID192 (DTP/NCI, 2004).
Several values for one entry are separate records, joined by “and”; a condition that tells them apart may be missing. Identical values can stand only once. Inconclusive results and toxic doses are left out.

System: BDF1 mice, B16 melanoma ip, median survival T/C
Assay: NCI In Vivo Anticancer Drug Screen. Data for tumor model B16 Melanoma (intraperitoneal) in B6D2F1 (BDF1) mice
Conditions: endpoint: median survival time, higher = longer survival
Outline: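 Survival or tumor size is measured after treatment of tumor-bearing mice and normalised to the vehicle-treated control group.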

[1] = dose: 50.0 mg/kg/injection, schedule: Q01DX009 (ip), vehicle: Klucel (hydroxypropylcellulose) (HPC)
[2] = dose: 100.0 mg/kg/injection, schedule: Q01DX009 (ip), vehicle: Klucel (hydroxypropylcellulose) (HPC)
[3] = dose: 12.5 mg/kg/injection, schedule: Q01DX009 (ip), vehicle: Klucel (hydroxypropylcellulose) (HPC)
[4] = dose: 12.5 mg/kg/injection, schedule: Q01DX009 (ip), vehicle: saline with Tween-80
[5] = dose: 12.5 mg/kg/injection, schedule: Q01DX009 (ip), vehicle: saline
[6] = dose: 100.0 mg/kg/injection, schedule: Q01DX009 (ip), vehicle: saline with Tween-80
[7] = dose: 200.0 mg/kg/injection, schedule: Q01DX009 (ip), vehicle: saline with Tween-80
[8] = dose: 400.0 mg/kg/injection, schedule: Q01DX009 (ip), vehicle: saline with Tween-80
[9] = dose: 100.0 mg/kg/injection, schedule: Q04DX003 (ip), vehicle: Klucel (hydroxypropylcellulose) (HPC)
[10] = dose: 6.25 mg/kg/injection, schedule: Q04DX003 (ip), vehicle: Klucel (hydroxypropylcellulose) (HPC)
[11] = dose: 12.5 mg/kg/injection, schedule: Q04DX003 (ip), vehicle: Klucel (hydroxypropylcellulose) (HPC)
[12] = dose: 25.0 mg/kg/injection, schedule: Q04DX003 (ip), vehicle: Klucel (hydroxypropylcellulose) (HPC)
[13] = dose: 50.0 mg/kg/injection, schedule: Q04DX003 (ip), vehicle: Klucel (hydroxypropylcellulose) (HPC)
[14] = dose: 100.0 mg/kg/injection, schedule: Q04DX003 (ip), vehicle: saline with Tween-80
[15] = dose: 200.0 mg/kg/injection, schedule: Q04DX003 (ip), vehicle: saline with Tween-80
[16] = dose: 200.0 mg/kg/injection, schedule: Q01DX009 (ip), vehicle: Klucel (hydroxypropylcellulose) (HPC)
[17] = dose: 400.0 mg/kg/injection, schedule: Q01DX009 (ip), vehicle: Klucel (hydroxypropylcellulose) (HPC)

With `O=C(O)c1c(O)c(-c2ccccc2)nc2ccccc12` the T/C [1] was 103 % of control and the T/C [2] was 103 % of control.
In the case of `CS(=O)(=O)OCCCCOS(C)(=O)=O`, the T/C (dose: 3.13 mg/kg/injection, schedule: Q01DX009 (ip), vehicle: saline) is reported as 108 % of control, the T/C (dose: 6.25 mg/kg/injection, schedule: Q01DX009 (ip), vehicle: saline) is reported as 105 % of control and the T/C [3] is reported as 106 % of control and 107 % of control. The T/C [4] was 97 % of control and 100 % of control and 102 % of control and the T/C [5] was 95 % of control and 105 % of control.
`[Cl][Pt+2][Cl].[NH-]c1ccc([N+](=O)[O-])cc1[NH-]` was tested, and the T/C (dose: 5.0 mg/kg/injection, schedule: Q01DX009 (ip), vehicle: saline with Tween-80) was 103 % of control, the T/C (dose: 10.0 mg/kg/injection, schedule: Q01DX009 (ip), vehicle: saline with Tween-80) was 107 % of control and the T/C (dose: 20.0 mg/kg/injection, schedule: Q01DX009 (ip), vehicle: saline with Tween-80) was 107 % of control. The T/C (dose: 40.0 mg/kg/injection, schedule: Q01DX009 (ip), vehicle: saline with Tween-80) was 118 % of control and the T/C (dose: 80.0 mg/kg/injection, schedule: Q01DX009 (ip), vehicle: saline with Tween-80) was 115 % of control.
For `CCOC(=O)CCOc1ccc(Cl)cc1`, the T/C [6] was 101 % of control, the T/C [7] was 102 % of control and the T/C [8] was 96 % of control.
`CC1(C)c2ccccc2C(C)(C(Cl)(Cl)Cl)c2ccc(Cl)cc21` (centres undefined) was tested, and the T/C (dose: 50.0 mg/kg/injection, schedule: Q01DX009 (ip), vehicle: saline with Tween-80) was 97 % of control, the T/C [6] was 103 % of control and the T/C [7] was 91 % of control. The T/C [8] was 93 % of control.
`O=C(NCCCl)N(c1ccccc1)c1cccc(C(F)(F)F)c1` was tested, and the T/C [9] was 114 % of control, the T/C (dose: 200.0 mg/kg/injection, schedule: Q04DX003 (ip), vehicle: Klucel (hydroxypropylcellulose) (HPC)) was 105 % of control and the T/C (dose: 400.0 mg/kg/injection, schedule: Q04DX003 (ip), vehicle: Klucel (hydroxypropylcellulose) (HPC)) was 106 % of control.
With `C1CC[N-]CC1.C1CC[N-]CC1.O=C(O)C(=O)O.[Pt+2]` the T/C [10] was 100 % of control, the T/C [11] was 120 % of control and the T/C [12] was 119 % of control. For the same compound, the T/C [13] was 115 % of control and the T/C [9] was 113 % of control.
In the case of `COc1ccc(N=C(c2ccccc2)c2ccccc2)cc1`, the T/C [14] is reported as 95 % of control, the T/C [15] is reported as 86 % of control and the T/C (dose: 400.0 mg/kg/injection, schedule: Q04DX003 (ip), vehicle: saline with Tween-80) is reported as 90 % of control.
With `CCC1CN2C(=N1)c1ccccc1-c1cc(Cl)ccc12` (centres undefined) the T/C (dose: 6.25 mg/kg/injection, schedule: Q01DX009 (ip), vehicle: suspension in saline) was 95 % of control, the T/C (dose: 10.0 mg/kg/injection, schedule: Q01DX009 (ip), vehicle: saline) was 94 % of control and the T/C (dose: 12.5 mg/kg/injection, schedule: Q01DX009 (ip), vehicle: suspension in saline) was 109 % of control. The T/C (dose: 20.0 mg/kg/injection, schedule: Q01DX009 (ip), vehicle: saline) was 118 % of control, the T/C (dose: 40.0 mg/kg/injection, schedule: Q01DX009 (ip), vehicle: saline) was 150 % of control and the T/C (dose: 50.0 mg/kg/injection, schedule: Q01DX009 (ip), vehicle: suspension in saline) was 157 % of control.
In the case of `CCOC(=O)c1[nH]c(C)nc1/N=N/N(C)C`, the T/C [5] is reported as 111 % of control, the T/C (dose: 25.0 mg/kg/injection, schedule: Q01DX009 (ip), vehicle: saline) is reported as 110 % of control and the T/C (dose: 50.0 mg/kg/injection, schedule: Q01DX009 (ip), vehicle: saline) is reported as 111 % of control. For the same compound, the T/C (dose: 100.0 mg/kg/injection, schedule: Q01DX009 (ip), vehicle: saline) was 123 % of control.
With `CCC[CH2][Sn]1([CH2]CCC)[S]CC[N]1S(=O)(=O)c1ccc(C)cc1` the T/C (dose: 6.0 mg/kg/injection, schedule: Q01DX009 (ip), vehicle: saline with Tween-80) was 95 % of control and the T/C [4] was 108 % of control.
For `C[C@]12CC[C@@H]3c4ccc(OC(=O)Cc5ccc(N(CCCl)CCCl)cc5)cc4CC[C@H]3[C@@H]1CC[C@@H]2OC(=O)Cc1ccc(N(CCCl)CCCl)cc1`, the T/C [3] was 95 % of control, the T/C (dose: 25.0 mg/kg/injection, schedule: Q01DX009 (ip), vehicle: Klucel (hydroxypropylcellulose) (HPC)) was 108 % of control and the T/C [1] was 104 % of control. The T/C (dose: 64.0 mg/kg/injection, schedule: Q02DX009 (ip), vehicle: Klucel (hydroxypropylcellulose) (HPC)) was 95 % of control, the T/C [2] was 111 % of control and the T/C [16] was 118 % of control. The T/C (dose: 256.0 mg/kg/injection, schedule: Q02DX009 (ip), vehicle: Klucel (hydroxypropylcellulose) (HPC)) was 90 % of control and the T/C [17] was 123 % of control.
For `CC(=O)[C@@]1(O)CC[C@H]2[C@@H]3C[C@H](C)C4=CC(=O)C=C[C@]4(C)[C@@]3(F)[C@@H](O)C[C@@]21C`, the T/C (dose: 25.0 mg/kg/injection, schedule: Q01DX009 (sc), vehicle: steriod suspending solution) was 102 % of control and the T/C (dose: 50.0 mg/kg/injection, schedule: Q01DX009 (sc), vehicle: steriod suspending solution) was 107 % of control.
In the case of `ClCCN(CCCl)CCCN1c2ccccc2Sc2ccccc21`, the T/C (dose: 3.12 mg/kg/injection, schedule: Q04DX003 (ip), vehicle: saline with Tween-80) is reported as 109 % of control and the T/C (dose: 6.25 mg/kg/injection, schedule: Q04DX003 (ip), vehicle: saline with Tween-80) is reported as 97 % of control.
In the case of `C=CC(C(=O)OCC)C(O)CCC` (centres undefined), the T/C [1] is reported as 121 % of control, the T/C [2] is reported as 100 % of control and the T/C [16] is reported as 101 % of control.
For `CC(O)c1cc(Cl)ccc1Cl` (centres undefined), the T/C [6] was 93 % of control, the T/C [14] was 107 % of control and the T/C [7] was 115 % of control. The T/C [15] was 107 % of control and the T/C [8] was 103 % of control.
`COC(=O)C1C2CC3c4[nH]c5cc(OC)ccc5c4CCN3CC2CC(OC2CCCCO2)C1OC` (centres undefined) was tested, and the T/C (dose: 0.19 mg/kg/injection, schedule: Q01DX009 (ip), vehicle: Klucel (hydroxypropylcellulose) (HPC)) was 112 % of control, the T/C (dose: 0.39 mg/kg/injection, schedule: Q01DX009 (ip), vehicle: Klucel (hydroxypropylcellulose) (HPC)) was 104 % of control and the T/C (dose: 0.78 mg/kg/injection, schedule: Q01DX009 (ip), vehicle: Klucel (hydroxypropylcellulose) (HPC)) was 103 % of control. For the same compound, the T/C (dose: 0.78 mg/kg/injection, schedule: Q04DX003 (ip), vehicle: Klucel (hydroxypropylcellulose) (HPC)) was 91 % of control, the T/C (dose: 1.56 mg/kg/injection, schedule: Q01DX009 (ip), vehicle: Klucel (hydroxypropylcellulose) (HPC)) was 101 % of control and the T/C (dose: 1.56 mg/kg/injection, schedule: Q04DX003 (ip), vehicle: Klucel (hydroxypropylcellulose) (HPC)) was 90 % of control. The T/C (dose: 3.12 mg/kg/injection, schedule: Q01DX009 (ip), vehicle: Klucel (hydroxypropylcellulose) (HPC)) was 111 % of control, the T/C (dose: 3.12 mg/kg/injection, schedule: Q04DX003 (ip), vehicle: Klucel (hydroxypropylcellulose) (HPC)) was 96 % of control and 122 % of control and the T/C [10] was 98 % of control. For the same compound, the T/C [11] was 95 % of control and 111 % of control, the T/C [12] was 113 % of control and the T/C [13] was 111 % of control. The T/C [9] was 100 % of control.
With `C(/C=C/c1ccccc1)=Nc1ccc2c(c1)Cc1ccccc1-2` the T/C [2] was 96 % of control, the T/C [16] was 90 % of control and the T/C [17] was 87 % of control.
For `COc1ccc(C=Nc2ccc(Cl)cc2)cc1`, the T/C [1] was 104 % of control, the T/C [2] was 103 % of control and the T/C [16] was 106 % of control.
For `CCC(C)c1ccc(O)c(C(C)CC)c1` (centres undefined), the T/C (dose: 88.0 mg/kg/injection, schedule: Q01DX009 (ip), vehicle: saline with Tween-80) was 123 % of control, the T/C (dose: 133.0 mg/kg/injection, schedule: Q01DX009 (ip), vehicle: saline with Tween-80) was 108 % of control and the T/C [7] was 105 % of control. The T/C (dose: 300.0 mg/kg/injection, schedule: Q01DX009 (ip), vehicle: saline with Tween-80) was 108 % of control.
For `CC(C)CCOC(=O)C(O)c1ccccc1` (centres undefined), the T/C [2] was 87 % of control, the T/C [16] was 93 % of control and the T/C [17] was 87 % of control.
For `c1ccc(-c2nc3ccc4ccccc4c3nc2-c2ccccc2)cc1`, the T/C [6] was 100 % of control, the T/C [7] was 118 % of control and the T/C [8] was 95 % of control.
In the case of `CCC[CH2][Sn]([CH2]CCC)([S]C#N)[S]C#N`, the T/C (dose: 0.75 mg/kg/injection, schedule: Q01DX009 (ip), vehicle: saline with Tween-80) is reported as 98 % of control, the T/C (dose: 1.5 mg/kg/injection, schedule: Q01DX009 (ip), vehicle: saline with Tween-80) is reported as 101 % of control and the T/C (dose: 3.0 mg/kg/injection, schedule: Q01DX009 (ip), vehicle: saline with Tween-80) is reported as 98 % of control.
